Like-named read-outs stand apart in the source and are kept apart here.
Assays:
Test in all cases: biochemical
Parameters in all cases: Eurofins DiscoverX kinase panel, competitive binding assay at 1 uM, percent of DMSO control
Conditions in all cases: competitive binding, percent of DMSO control
BTK = BTK (Homo sapiens, UniProt Q06187)
Outline: (§1)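 Competitive binding assay across a 96-kinase panel with KIF18A compounds at 1 µM; values given as percentage of control (POC), single experiment.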

INSR = INSR (Homo sapiens, UniProt P06213)
Outline: as §1

RSK 1 = target: T1, RSK 1 (Homo sapiens, UniProt Q15418)
T1 construct: gene RPS6KA1
Outline: as §1

PI3K delta = target: T2, PI3K delta (Homo sapiens, UniProt O00329)
T2 construct: gene PIK3CD
T2 sequence (O00329 1-1044): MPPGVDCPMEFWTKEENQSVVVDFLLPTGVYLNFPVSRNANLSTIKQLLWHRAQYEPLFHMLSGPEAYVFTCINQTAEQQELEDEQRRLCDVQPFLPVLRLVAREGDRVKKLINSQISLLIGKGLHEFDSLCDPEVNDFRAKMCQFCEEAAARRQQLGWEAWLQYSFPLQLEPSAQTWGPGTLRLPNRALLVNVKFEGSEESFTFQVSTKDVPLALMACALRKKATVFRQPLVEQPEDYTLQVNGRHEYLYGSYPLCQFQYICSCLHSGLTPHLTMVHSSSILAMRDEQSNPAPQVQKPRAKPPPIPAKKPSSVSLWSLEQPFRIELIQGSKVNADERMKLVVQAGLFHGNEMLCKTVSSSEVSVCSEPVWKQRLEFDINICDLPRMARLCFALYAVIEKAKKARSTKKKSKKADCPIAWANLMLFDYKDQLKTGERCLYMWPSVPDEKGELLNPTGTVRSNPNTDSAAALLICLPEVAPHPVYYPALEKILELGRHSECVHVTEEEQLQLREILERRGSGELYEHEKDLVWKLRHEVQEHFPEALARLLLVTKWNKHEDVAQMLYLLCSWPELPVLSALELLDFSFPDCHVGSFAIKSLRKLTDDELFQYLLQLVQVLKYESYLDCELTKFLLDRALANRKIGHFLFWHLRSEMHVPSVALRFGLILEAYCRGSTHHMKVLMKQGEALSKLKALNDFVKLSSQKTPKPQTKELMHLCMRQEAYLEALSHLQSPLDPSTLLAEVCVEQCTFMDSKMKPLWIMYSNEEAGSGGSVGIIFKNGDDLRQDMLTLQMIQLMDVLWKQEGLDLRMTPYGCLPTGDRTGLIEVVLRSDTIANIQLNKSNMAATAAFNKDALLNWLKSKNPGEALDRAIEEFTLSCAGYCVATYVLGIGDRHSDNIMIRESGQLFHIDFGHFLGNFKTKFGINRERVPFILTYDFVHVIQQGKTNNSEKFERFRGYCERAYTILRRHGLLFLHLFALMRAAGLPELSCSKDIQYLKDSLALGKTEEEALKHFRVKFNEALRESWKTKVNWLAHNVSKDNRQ
Outline: as §1

c-KIT = c-KIT (Homo sapiens, UniProt P10721)
Outline: as §1

EGFR = EGFR (Homo sapiens, UniProt P00533)
Outline: as §1

GSK3B = GSK3B (Homo sapiens, UniProt P49841)
Outline: as §1

[1] = read-out: Kinome Profiling performed by Eurofins DiscoverX / AM-1882, 1.0 µM / POC
[2] = read-out: Kinome Profiling performed by Eurofins DiscoverX / AM-0277, 1.0 µM / POC
[3] = read-out: Kinome Profiling performed by Eurofins DiscoverX / AM-5308, 1.0 µM / POC

T1 sequence (Q15418 whole entry): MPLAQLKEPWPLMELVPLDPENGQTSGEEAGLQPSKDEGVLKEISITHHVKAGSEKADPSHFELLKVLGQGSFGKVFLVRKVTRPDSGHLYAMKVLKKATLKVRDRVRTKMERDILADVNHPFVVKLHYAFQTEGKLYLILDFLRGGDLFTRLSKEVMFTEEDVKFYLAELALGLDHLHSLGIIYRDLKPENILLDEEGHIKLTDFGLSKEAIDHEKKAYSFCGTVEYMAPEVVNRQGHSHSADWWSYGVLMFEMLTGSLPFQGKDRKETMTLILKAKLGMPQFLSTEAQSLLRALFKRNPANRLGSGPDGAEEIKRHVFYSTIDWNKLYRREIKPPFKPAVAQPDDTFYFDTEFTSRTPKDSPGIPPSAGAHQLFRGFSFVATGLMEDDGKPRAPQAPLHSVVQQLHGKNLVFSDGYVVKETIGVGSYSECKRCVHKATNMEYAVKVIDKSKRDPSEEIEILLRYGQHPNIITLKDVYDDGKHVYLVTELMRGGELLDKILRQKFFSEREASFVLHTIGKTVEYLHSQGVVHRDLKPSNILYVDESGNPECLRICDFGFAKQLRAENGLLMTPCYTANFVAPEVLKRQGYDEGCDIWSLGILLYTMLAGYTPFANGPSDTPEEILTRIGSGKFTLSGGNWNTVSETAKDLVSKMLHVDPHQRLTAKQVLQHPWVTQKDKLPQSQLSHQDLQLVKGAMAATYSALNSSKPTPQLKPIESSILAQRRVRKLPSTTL
Sequence of BTK (Q06187 whole entry): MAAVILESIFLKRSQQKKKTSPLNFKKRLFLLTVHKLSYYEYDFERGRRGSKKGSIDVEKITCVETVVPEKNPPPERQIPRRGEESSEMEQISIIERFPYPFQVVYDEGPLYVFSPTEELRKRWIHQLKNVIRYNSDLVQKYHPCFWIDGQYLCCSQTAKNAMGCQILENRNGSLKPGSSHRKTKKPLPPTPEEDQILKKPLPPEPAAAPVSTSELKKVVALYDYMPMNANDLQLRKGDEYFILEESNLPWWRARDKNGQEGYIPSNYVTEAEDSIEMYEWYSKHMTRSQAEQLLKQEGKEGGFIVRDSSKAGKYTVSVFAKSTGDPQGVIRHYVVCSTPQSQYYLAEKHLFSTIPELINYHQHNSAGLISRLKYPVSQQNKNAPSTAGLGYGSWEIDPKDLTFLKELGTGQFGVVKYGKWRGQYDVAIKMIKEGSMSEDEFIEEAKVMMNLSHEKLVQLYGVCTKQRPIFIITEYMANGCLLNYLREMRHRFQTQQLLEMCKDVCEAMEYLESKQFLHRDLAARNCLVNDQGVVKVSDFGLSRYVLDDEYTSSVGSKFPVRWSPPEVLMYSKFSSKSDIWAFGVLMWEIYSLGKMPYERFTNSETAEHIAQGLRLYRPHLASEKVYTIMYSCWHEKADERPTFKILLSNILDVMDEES
Sequence of GSK3B (P49841 whole entry): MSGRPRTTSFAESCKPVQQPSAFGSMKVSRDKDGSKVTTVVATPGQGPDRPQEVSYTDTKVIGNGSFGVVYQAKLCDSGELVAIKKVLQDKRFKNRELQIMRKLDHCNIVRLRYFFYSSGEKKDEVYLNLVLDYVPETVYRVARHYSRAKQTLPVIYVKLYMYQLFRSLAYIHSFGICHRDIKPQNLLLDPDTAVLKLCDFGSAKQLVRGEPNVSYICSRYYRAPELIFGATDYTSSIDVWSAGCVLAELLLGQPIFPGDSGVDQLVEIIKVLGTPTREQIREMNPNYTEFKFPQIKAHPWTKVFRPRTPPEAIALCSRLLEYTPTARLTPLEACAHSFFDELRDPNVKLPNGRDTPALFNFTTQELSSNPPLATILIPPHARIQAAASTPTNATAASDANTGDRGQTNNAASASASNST
Sequence of c-KIT (P10721 whole entry): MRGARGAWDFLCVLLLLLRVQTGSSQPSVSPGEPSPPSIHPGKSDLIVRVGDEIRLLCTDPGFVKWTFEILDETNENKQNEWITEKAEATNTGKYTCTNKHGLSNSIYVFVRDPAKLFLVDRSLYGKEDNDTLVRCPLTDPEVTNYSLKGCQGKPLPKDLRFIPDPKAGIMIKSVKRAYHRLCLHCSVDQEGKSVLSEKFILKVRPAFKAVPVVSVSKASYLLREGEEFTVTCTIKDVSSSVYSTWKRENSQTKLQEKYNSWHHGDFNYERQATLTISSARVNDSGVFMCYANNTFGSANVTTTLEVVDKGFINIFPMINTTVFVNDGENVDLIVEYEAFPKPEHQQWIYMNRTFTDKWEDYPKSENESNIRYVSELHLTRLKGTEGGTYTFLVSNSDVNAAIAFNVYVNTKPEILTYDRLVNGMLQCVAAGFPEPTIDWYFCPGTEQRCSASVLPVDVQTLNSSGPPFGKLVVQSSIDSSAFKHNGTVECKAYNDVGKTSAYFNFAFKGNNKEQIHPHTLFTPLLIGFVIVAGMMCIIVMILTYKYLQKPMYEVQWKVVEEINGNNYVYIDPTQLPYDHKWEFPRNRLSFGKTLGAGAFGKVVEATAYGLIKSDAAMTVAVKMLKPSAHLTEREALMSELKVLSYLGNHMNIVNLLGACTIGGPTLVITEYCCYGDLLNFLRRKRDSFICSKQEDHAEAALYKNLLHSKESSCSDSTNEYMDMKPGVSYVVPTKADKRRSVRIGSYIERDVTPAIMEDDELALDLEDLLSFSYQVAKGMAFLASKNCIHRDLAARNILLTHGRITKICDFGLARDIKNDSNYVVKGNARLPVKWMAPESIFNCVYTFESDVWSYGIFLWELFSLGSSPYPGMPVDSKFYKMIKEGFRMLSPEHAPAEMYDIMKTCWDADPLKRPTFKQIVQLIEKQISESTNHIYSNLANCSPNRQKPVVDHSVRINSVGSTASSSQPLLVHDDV
Sequence of EGFR (P00533 whole entry): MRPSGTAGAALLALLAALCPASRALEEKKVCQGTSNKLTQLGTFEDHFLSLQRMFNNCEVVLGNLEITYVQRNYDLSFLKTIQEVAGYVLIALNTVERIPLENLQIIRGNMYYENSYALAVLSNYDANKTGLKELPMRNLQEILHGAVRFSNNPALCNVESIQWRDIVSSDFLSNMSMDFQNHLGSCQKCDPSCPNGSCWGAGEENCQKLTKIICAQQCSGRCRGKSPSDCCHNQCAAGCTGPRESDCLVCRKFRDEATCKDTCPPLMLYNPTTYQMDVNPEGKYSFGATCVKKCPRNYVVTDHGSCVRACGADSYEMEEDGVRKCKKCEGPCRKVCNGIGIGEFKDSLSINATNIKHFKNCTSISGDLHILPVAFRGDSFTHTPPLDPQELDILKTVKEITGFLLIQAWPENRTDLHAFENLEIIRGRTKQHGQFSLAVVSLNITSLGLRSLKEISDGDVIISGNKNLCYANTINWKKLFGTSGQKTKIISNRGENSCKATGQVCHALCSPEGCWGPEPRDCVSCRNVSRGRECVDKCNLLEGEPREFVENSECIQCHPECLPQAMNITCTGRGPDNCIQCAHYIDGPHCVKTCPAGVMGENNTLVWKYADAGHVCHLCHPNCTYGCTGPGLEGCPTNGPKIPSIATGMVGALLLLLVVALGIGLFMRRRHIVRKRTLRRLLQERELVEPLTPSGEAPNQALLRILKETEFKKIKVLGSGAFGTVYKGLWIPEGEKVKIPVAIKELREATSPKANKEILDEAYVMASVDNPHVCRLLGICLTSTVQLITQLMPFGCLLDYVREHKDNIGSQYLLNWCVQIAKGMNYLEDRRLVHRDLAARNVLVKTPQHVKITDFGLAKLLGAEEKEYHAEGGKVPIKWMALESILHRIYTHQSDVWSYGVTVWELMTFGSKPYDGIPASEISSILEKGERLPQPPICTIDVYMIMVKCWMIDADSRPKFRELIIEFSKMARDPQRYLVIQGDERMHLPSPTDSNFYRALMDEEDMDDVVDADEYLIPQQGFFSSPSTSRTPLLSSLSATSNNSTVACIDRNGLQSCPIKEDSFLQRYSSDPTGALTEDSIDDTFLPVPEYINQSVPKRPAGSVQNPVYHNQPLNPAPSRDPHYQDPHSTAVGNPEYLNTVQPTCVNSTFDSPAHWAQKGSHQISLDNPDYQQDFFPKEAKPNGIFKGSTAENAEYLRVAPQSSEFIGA

SMILES: CC(C)(C)NS(=O)(=O)c1cccc(NC(=O)c2ccc(S(=O)(=O)NC(C)(C)C)cc2N2CCC3(CC2)CC3)c1 [AM-1882]
- remaining activity at 1 µM (BTK; [1]): 100%
- remaining activity at 1 µM (INSR; [1]): 100%
- remaining activity at 1 µM (RSK 1; [1]): 100%
- remaining activity at 1 µM (PI3K delta; [1]): 96.5%
- remaining activity at 1 µM (c-KIT; [1]): 100%
- remaining activity at 1 µM (EGFR; [1]): 100%
- remaining activity at 1 µM (GSK3B; [1]): 100%

SMILES: CC(C)(CO)Nc1ccc(C(=O)Nc2cccc(S(=O)(=O)C3CCCC3)c2)c(N2CCC3(CC2)CC3)n1 [AM-0277]
- remaining activity at 1 µM (BTK; [2]): 100%
- remaining activity at 1 µM (INSR; [2]): 100%
- remaining activity at 1 µM (RSK 1; [2]): 100%
- remaining activity at 1 µM (PI3K delta; [2]): 100%
- remaining activity at 1 µM (c-KIT; [2]): 92%
- remaining activity at 1 µM (EGFR; [2]): 93%
- remaining activity at 1 µM (GSK3B; [2]): 100%

SMILES: C[C@@H]1CN(c2cccc(NC(=O)c3ccc(NS(=O)(=O)CCO)cc3N3CCC4(CC3)CC4)n2)CCO1 [AM-5308]
- remaining activity at 1 µM (BTK; [3]): 98.5%
- remaining activity at 1 µM (INSR; [3]): 100%
- remaining activity at 1 µM (RSK 1; [3]): 91.5%
- remaining activity at 1 µM (PI3K delta; [3]): 68%
- remaining activity at 1 µM (c-KIT; [3]): 100%
- remaining activity at 1 µM (EGFR; [3]): 83%
- remaining activity at 1 µM (GSK3B; [3]): 100%

From publication PMC10824666 (Nature Cancer, 2023)
